# In patent publication US11026945B2, “Protein kinase RNA-like endoplasmic reticulum kinase (PERK) inhibitors for prevention and/or treatment of lung injury and/or inflammation” (THE TRUSTEES OF THE UNIVERSITY OF PENNSYLVANIA, priority 2016, dated 2021):
# Columns and labels:
# [1] = tested on: tight junction proteins (CLDN4, CLDN18) bound to ZO-1 in AEC-I monolayers; test: Co-immunoprecipitation of tight junction proteins with ZO-1 as bait; assay type: cell-based, rat; conditions: stretched monolayers (25%, 6 hours), PI pretreatment
# Method: The dose of siRNA and PI treatment was selected based on dose-response curves above (FIG. 2A-FIG. 2E). AEC-II transformed to AEC-I cells and formed a complete monolayer by day 4, expressing only AEC-I cell surface markers. On the day of the experiment, the medium was removed and replaced with HEPES-buffered MEM. Cells stretch was performed in a 37° C. incubator. The effect of ISR inhibition or control treatment was compared in the following three conditions (N=5 biological replicates/condition): 1) no stretch (NS) controls; 2) mechanical stretch with 12% surface change (S 12%); and 3) mechanical stretch with 25% surface change (S25%). The cell monolayers were exposed to the above mentioned conditions for 6 hours based on time course of ISR protein expression obtained during preliminary data collection (FIG. 2A-FIG. 2E). All membranes were treated with FITC-labeled streptavidin (Thermo Fisher Scientific) at the end of the experiment and light emission was detected at 488 nm with fluorescent microscopy (Nikon TE300, Melville, N.Y.). In a separate set of experiments (N=30 rats), in which the above mentioned treatment plan and conditions were used, cells were harvested at the end of the experiment by scraping them in RIPA buffer and total protein was extracted (N=3 membranes/treatment group performed for N=5 biological replicates per condition). […]
# [2] = tested on: AEC-I monolayers; test: Cytokine levels in culture supernatant, multiplex bead assay; assay type: cell-based, rat; conditions: stretched monolayers, PI treatment
# Method: Given the interest in cytokines as a biomarker of injury, the contribution of ISR signaling to stretch-induced proinflammatory mediator release was assessed by measuring the level of 26 common cytokines in the culture media in the presence and absence of PI. Generally low cytokine response to stretch was found with modest elevations in IL-18, IL-1α and MIP-1α (FIG. 4A-FIG. 4C). […] (FIG. 4A). To study the regulation of IL-18 by ISR, stretched and unstretched cells were treated with CHOP, ATF4 and PERK siRNA (FIG. 17A-FIG. 17B and FIG. 4D-FIG. 4F). […] Cell culture media IL-18 levels were compared to no siRNA and non-targeting siRNA treatments.
# Culture media of stretched and unstretched AEC-I monolayers was collected at the end of the experiment. N=5 biological monolayer replicates were used per condition. 0.5 ml samples were concentrated to 30 μl using centrifugal filters (Amicon Ultra, EMD Millipore). Levels of 26 common cytokines and chemokines were measured with RECYTMAG-65K MILLIPLEX MAP Rat Cytokine Chemokine Magnetic Bead Panel multiplex bead assay (EMD Millipore Corp., Billerica, Mass.) in triplicates per the manufacturer's protocol. 25 μl samples were used. The following analytes were measured: epidermal growth factor (EGF), eotaxin, macrophage colony stimulating factor […], interleukin (IL)-1α, 2,4,5,6,10,12 (p70), 13, 17A, 18; granulocyte-macrophage colony stimulating factor (GM-CSF), regulated on activation, normal T cell expressed and secreted (RANTES), vascular […] growth factor (VEGF), fractalkine, interferon-γ (INFγ), interferon-γ-inducible protein 10 (IP-10), leptin, tumor necrosis factor-α (TNF-α), keratinocyte chemoattractant (GRO/KC), macrophage inflammatory protein (MIP)-1α and 2, monocyte chemoattractant protein (MCP-1), and LPS-induced chemokine (LIX). Samples were read in triplicates and an averaged value was obtained.
structure (smiles),measurement,setting,value
"Cn1cc(-c2ccc3c(c2)CCN3C(=O)Cc2cccc(C(F)(F)F)c2)c2c(N)ncnc21 [PI, 1-[5-(4-Amino-7-methyl-7H-pyrrolo[2,3-d]pyrimidin-5-yl)indolin-1-yl]-2-(3-trifluoromethylphenyl)ethanone]",dissociation of CLDN 4 from ZO-1,[1],prevented
same,dissociation of CLDN 18 from ZO-1,[1],prevented
same,IL-1α level in supernatant,[2],did not affect
same,IL-18 level in supernatant,[2],decreased
same,MIP-1α level in supernatant,[2],did not affect
